These results are taken from patent US20190308988A1, “OPIOID RECEPTOR ANTAGONIST PRODRUGS” (Nirsum Laboratories, Inc., priority 2017, published 2019).

Values after ≈ are worked out from the molar mass of the structure shown. Like-named read-outs stand apart in the source and are kept apart here.

Data set [1] deals with T1, DOR (Homo sapiens, UniProt P41143).
T1 construct: expressed in transfected cells
The data set is described as follows: Opioid receptor binding assay, DOR ([3H]-DADLE). Here is the method:
(§1) Receptor binding assays were performed to assess the ability of compounds to inhibit binding to radiolabeled ligand.
(§2) The stable cell lines were established and prepared cell membrane obtained using these cell lines.
(§3) 1) Transfer 1 μl of specified concentration compound to assay plate according to the plate map for nonspecific binding. Transfer 1 μl of DMSO to assay plate according to plate map for total binding. 2) Follow the plate map. Dispense 99 μl of membrane stocks into the plate. 3) Add 100 μl of radio ligand. 4) Seal the plates. Incubate at RT for 1 hour. 5) Soak the Unifilter-96 GF/C filter plates with 50 μl of 0.3% PEI per well for at least 0.5 hour at room temperature. 6) When binding assays are completed, filter the reaction mixture through GF/C plates using Perkin Elmer Filtermate Harvester, and then wash each plate for 4 times with cold wash buffer. 7) Dry the filter plates for 1 hour at 50 degrees. 8) After drying, seal the bottom of the filter plate wells using Perkin Elmer Unifilter-96 backing seal tape. Add 50 μl of Perkin Elmer Microscint 20 cocktail. Seal top of filter plates with Perkin Elmer TopSeal-A sealing film. 9) Count ^3H trapped on filter using Perkin Elmer MicroBeta2 Reader second day. 10) Analyze the data with GraphPad Prism 5. Calculate the “Inhibition [% Control]” using the equation: % Inh=(1−Background subtracted Assay value/Background subtracted HC value)*100.

The target of data set [2] is T2, KOR (Homo sapiens, UniProt P41145).
T2 construct: expressed in transfected cells
T2 sequence (P41145 whole entry): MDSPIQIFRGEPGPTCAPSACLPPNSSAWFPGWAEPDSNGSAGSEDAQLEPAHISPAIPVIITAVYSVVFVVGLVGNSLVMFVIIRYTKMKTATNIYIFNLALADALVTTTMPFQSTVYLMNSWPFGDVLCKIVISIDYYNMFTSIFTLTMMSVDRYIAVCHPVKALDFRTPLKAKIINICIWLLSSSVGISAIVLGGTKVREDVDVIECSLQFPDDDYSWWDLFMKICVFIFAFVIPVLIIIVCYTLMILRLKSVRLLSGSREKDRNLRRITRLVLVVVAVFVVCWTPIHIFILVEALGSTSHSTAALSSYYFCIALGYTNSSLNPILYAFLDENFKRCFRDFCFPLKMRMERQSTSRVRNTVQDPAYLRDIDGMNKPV
The data set is described as follows: Opioid receptor binding assay, KOR ([3H]Diprenorphine). As for the experimental part:
as §1, §2, §3

Data set [3] addresses T3, MOR (Homo sapiens, UniProt P35372).
T3 construct: expressed in transfected cells
The data set is described as follows: Opioid receptor binding assay, MOR ([3H]DAMGO). Here is the method: as §1, §2, §3

Data set [4] can be described thus: Solubility determination in oil (Table 10). The settings on record: thermodynamic from solid; for solubility at 24 h: 25 °C, Obs. Temp. 25 °C; for solubility thermodynamic / solubility: 40 °C, Obs. Temp. 40 °C; for solubility thermodynamic: water, Equilibrium solubility: Water. Here is the method:
A known amount of test substance (˜40 mg) was weighed into the vial, 100 μL of oil was added and heated to 60° C. and then system was slurried to reach equilibrium. […] Extra oil was added into the vial once compound precipitated out and then the system was re-equilibrated at 1000 rpm at room temperature (25° C.). Final concentration was determined by HPLC method as described below in Table 6a and 6b.

The nature of data set [5]: Dog pharmacokinetic studies, deep intramuscular administration. It is filed as in vivo, Beagle dogs. The settings on record: for AUC(0-inf) / half-life: Beagle, dog, plasma, im, Cottonseed + 1% Benzyl Alcohol; for AUC(0-inf): read-out: AUC0-inf (ng · h/mL) prodrug; for half-life: read-out: Half-life t1/2 (hour) prodrug (converted). Here is the method:
The purpose of this study is to determine the pharmacokinetics of test compounds in plasma, following deep intramuscular administration to Beagle dogs (n=3, unless otherwise specified).
The dose formulation (concentration—400 mg base equivalents/ml in sesame oil+1% benzyl alcohol, unless otherwise specified) was administered via deep intramuscularly (unless otherwise specified). The injection vehicle was also dosed via deep intramuscular route (unless otherwise specified) on contralateral site of each animal at study initiation. The animals were sedated with Propofol at 6 mg/kg via IV administration. Following sedation hair was carefully removed from around the injection site and the area gently cleaned. Care will be taken to avoid irritating skin during shaving and cleaning the injection site. Then dogs will be dosed with deep IM administration. At least 2.5 cm depth from the surface into the central aspect of the quadriceps or biceps femoris muscle, by angling the needle toward the femur. If the needle hits the femur, simply draws back slightly and then inject. The dose volume will be determined by the animals' body weight collected on the morning of dosing day. For repeated administration, the injection sites may be rotated to minimize tissue injury.
Blood samples were collected from a peripheral vessel from restrained, non-sedated animals per sampling time point.
Approximately 0.8 mL blood will be collected at each time point.
Each collected blood sample was centrifuged for 4 minutes at 4° C. and 10000 rpm for plasma collection. Plasma was collected and transferred into a pre-labeled PP tube in dry ice at each time point and precipitated immediately using ACN at a ratio of 1:4 (plasma:ACN).
LC-MS/MS methods for the quantitative determination of test compound in biological matrix were developed. […] The sample analysis was performed concurrently with a set of calibration standards and two sets of QC samples using the LC-MS/MS method.
Plasma concentration versus time data was analyzed by non-compartmental approaches using the Phoenix WinNonlin 6.3 software program. Cmax, Tmax, T1/2, AUC(0-t), AUC(0-inf), MRT(0-t), MRT(0-inf) and graphs of plasma concentration versus time profile were prepared.

Where [6] appears, read: oil or lipid, Approximate Solubility in Excipient: Cottonseed oil, Heating Temp. 60 °C.
[7] abbreviates: oil or lipid, Approximate Solubility in Excipient: Sesame oil, Heating Temp. 60 °C.
[8] abbreviates: IM 96 mg/kg, Cottonseed oil + 1% Benzyl Alcohol.

T3 sequence (P35372 whole entry): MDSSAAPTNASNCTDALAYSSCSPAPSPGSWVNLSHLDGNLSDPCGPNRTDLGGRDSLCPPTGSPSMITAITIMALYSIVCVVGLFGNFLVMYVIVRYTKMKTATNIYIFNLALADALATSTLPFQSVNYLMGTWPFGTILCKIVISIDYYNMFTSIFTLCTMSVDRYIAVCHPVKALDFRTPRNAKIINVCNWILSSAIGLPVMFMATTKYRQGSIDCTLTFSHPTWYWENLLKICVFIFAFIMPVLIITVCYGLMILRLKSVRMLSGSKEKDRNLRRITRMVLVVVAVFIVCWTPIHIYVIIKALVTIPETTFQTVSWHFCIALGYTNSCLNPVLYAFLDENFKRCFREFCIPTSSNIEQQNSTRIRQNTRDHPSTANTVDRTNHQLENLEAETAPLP
T1 sequence (P41143 whole entry): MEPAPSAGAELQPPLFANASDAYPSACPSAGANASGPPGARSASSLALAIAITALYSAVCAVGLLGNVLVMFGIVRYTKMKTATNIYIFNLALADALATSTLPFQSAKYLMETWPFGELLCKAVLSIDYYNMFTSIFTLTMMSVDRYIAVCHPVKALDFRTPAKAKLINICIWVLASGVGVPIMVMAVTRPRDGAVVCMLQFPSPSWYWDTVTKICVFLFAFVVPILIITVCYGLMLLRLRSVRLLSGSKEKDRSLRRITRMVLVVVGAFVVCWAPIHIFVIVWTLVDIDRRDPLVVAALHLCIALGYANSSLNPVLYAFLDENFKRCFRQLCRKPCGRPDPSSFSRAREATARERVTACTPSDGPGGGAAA

As a reminder, the IC50 is the concentration at which inhibition is half-maximal. Higher therefore signals a need for much substance. In general, solubility refers to the dissolved amount per volume that the medium holds. By solubility (thermodynamic) is commonly meant the concentration in solution at equilibrium with solid. As for `C=C1CC[C@@]2(O)C3Cc4ccc(OCOC(=O)CCCCCCCCCCCCC)c5c4[C@@]2(CCN3CC2CC2)[C@H]1O5` [Compound 45, (((4aS,7aS,12bS)-3-(cyclopropylmethyl)-4a-hydroxy-7-methylene-2,3,4,4a,5,6,7,7a-octahydro-1H-4,12-methanobenzofuro[3,2-e]isoquinolin-9-yl)oxy)methyl tetradecanoate], the values for the IC50 in data set [1], in data set [2] and in data set [3] were 68.4 nM, 5.5 nM and 2 nM, respectively. Besides, the solubility at 24 h in data set [4] (setting [6]) was over 402 mg/mL; in data set [4] (setting [7]), 267 to 288 mg/mL (≈ 460 to 497 mM). Moreover, the thermodynamic solubility in data set [4] (Heating Temp. 40 °C) was under 0.001 mg/mL. Also, the AUC(0-inf) stood at 100 ng·h/mL in data set [5] (30 mg/kg, IM 30 mg/kg) and 267 ng·h/mL in data set [5] (48 mg/kg, IM 48 mg/kg). Moreover, the half-life was 151 h in data set [5] (30 mg/kg, IM 30 mg/kg) and 171 h in data set [5] (48 mg/kg, IM 48 mg/kg). Moreover, the “AUC0-inf (ng · h/mL) prodrug” value in data set [5] (setting [8]) was “None”. Also, the “Half-life t1/2 (hour) prodrug” value in data set [5] (setting [8]) is “None”.
In the case of `C=C1CC[C@@]2(O)C3Cc4ccc(OC(=O)OCCCCCCCCCCCCC)c5c4[C@@]2(CCN3CC2CC2)[C@H]1O5` [Compound 30, (4aS,7aS,12bS)-3-(cyclopropylmethyl)-4a-hydroxy-7-methylene-2,3,4,4a,5,6,7,7a-octahydro-1H-4,12-methanobenzofuro[3,2-e]isoquinolin-9-yl tridecyl carbonate], the IC50 in data set [1] worked out at 1850 nM; in data set [2] it was 88.7 nM; in data set [3], 9 nM. The figures for the solubility at 24 h in data set [4] (setting [6]) and in data set [4] (setting [7]) were 252 to 404 mg/mL (≈ 446 to 714 mM) and 253 to 399 mg/mL (≈ 446 to 704 mM), respectively. The solubility (thermodynamic) in data set [4] (Heating Temp. 40 °C) is under 0.001 mg/mL.
For the compound `C=C1CC[C@@]2(O)C3Cc4ccc(OCOC(=O)CCCCCCCCCCC)c5c4[C@@]2(CCN3CC2CC2)[C@H]1O5` [Compound 44, (((4aS,7aS,12bS)-3-(cyclopropylmethyl)-4a-hydroxy-7-methylene-2,3,4,4a,5,6,7,7a-octahydro-1H-4,12-methanobenzofuro[3,2-e]isoquinolin-9-yl)oxy)methyl dodecanoate], the IC50 came to 190 nM in data set [1], 18.4 nM in data set [2] and 3.03 nM in data set [3]. Also, the solubility at 24 h is over 407 mg/mL in data set [4] (setting [6]) and 208 to 231 mg/mL (≈ 377 to 419 mM) in data set [4] (setting [7]). Also, the solubility (thermodynamic) in data set [4] (Heating Temp. 40 °C) is under 0.001 mg/mL.
With `C=C1CC[C@@]2(O)C3Cc4ccc(OCOC(=O)OCCCCCCCCCCCCCC)c5c4[C@@]2(CCN3CC2CC2)[C@H]1O5` [Compound 25, (((4aS,7aS,12bS)-3-(cyclopropylmethyl)-4a-hydroxy-7-methylene-2,3,4,4a,5,6,7,7a-octahydro-1H-4,12-methanobenzofuro[3,2-e]isoquinolin-9-yl)oxy)methyl tetradecyl carbonate], the 50% inhibitory concentration (IC50) was found to be 9540 nM in data set [1], 889 nM in data set [2] and 5 nM in data set [3]. Further, the figures for the solubility at 24 h in data set [4] (setting [6]) and in data set [4] (setting [7]) were over 414 mg/mL and over 404 mg/mL, respectively. Besides, the solubility (thermodynamic) in data set [4] (Heating Temp. 40 °C) was under 0.001 mg/mL.
For `C=C1CC[C@@]2(O)C3Cc4ccc(OCOC(=O)CCCCCCCCCCCCCCC)c5c4[C@@]2(CCN3CC2CC2)[C@H]1O5` [Compound 46, (((4aS,7aS,12bS)-3-(cyclopropylmethyl)-4a-hydroxy-7-methylene-2,3,4,4a,5,6,7,7a-octahydro-1H-4,12-methanobenzofuro[3,2-e]isoquinolin-9-yl)oxy)methyl hexadecanoate], the 50% inhibitory concentration (IC50) came to 1360 nM in data set [1], 33.9 nM in data set [2] and 4.52 nM in data set [3]. Besides, the solubility at 24 h in data set [4] (setting [6]) is over 396 mg/mL; in data set [4] (setting [7]) it was 202 to 269 mg/mL (≈ 332 to 443 mM). Moreover, the solubility (thermodynamic) in data set [4] (Heating Temp. 40 °C) was under 0.001 mg/mL.
Consider `CCCCCCCCOC(=O)Oc1ccc2c3c1O[C@H]1C(=O)CC[C@@]4(O)C(C2)N(CC2CC2)CC[C@]314` [Compound 23, (4aS,7aR,12bS)-3-(cyclopropylmethyl)-4a-hydroxy-7-oxo-2,3,4,4a,5,6,7,7a-octahydro-1H-4,12-methanobenzofuro[3,2-e]isoquinolin-9-yl octyl carbonate], for which the IC50 turned out to be 107 nM in data set [1], 11.7 nM in data set [2] and 2.8 nM in data set [3]. Further, the solubility at 24 h is over 408 mg/mL in data set [4] (setting [6]) and over 424 mg/mL in data set [4] (setting [7]). Further, the solubility is over 412 mg/mL in data set [4] (setting [6]) and over 419 mg/mL in data set [4] (organic solvent or mixture, Approximate Solubility in Excipient: Ethanol, Heating Temp. 60 °C). This compound had a solubility (thermodynamic) in data set [4] (Heating Temp. 60 °C) of 0.0094 mg/mL (≈ 0.0189 mM).
